Publication PMC7804859, “A metabolically stable apelin-17 analog decreases AVP-induced antidiuresis and improves hyponatremia” (Nature Communications, 2021)
“And” between values parts separate entries of the source, which are not always exact repeats. Equal entries are not always repeated.

What was measured:
[1] = target: T1, rat apelin-R-EGFP (Rattus norvegicus, UniProt Q9JHG3); assay: Inhibition of forskolin-induced cAMP production in CHO cells stably expressing rat apelin-R-EGFP (HTRF); format: cell-based; conditions: 5 µmol/l forskolin, 30 min 20 °C
T1 construct: expressed in transfected cells
T1 sequence (Q9JHG3 1-377): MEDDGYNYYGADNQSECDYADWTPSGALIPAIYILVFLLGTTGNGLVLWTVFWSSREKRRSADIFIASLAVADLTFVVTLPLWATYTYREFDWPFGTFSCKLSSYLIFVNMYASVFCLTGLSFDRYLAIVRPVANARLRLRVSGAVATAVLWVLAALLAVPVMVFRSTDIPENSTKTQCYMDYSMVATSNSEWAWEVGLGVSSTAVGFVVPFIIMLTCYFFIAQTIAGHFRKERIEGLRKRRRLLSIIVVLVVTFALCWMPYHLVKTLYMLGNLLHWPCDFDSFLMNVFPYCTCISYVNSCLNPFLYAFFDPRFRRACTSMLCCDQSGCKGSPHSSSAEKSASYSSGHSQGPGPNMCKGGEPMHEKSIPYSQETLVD
Procedure: 152 Supplementary Methods
154 We quantified cAMP production with the cAMP dynamic 2 assay kit (Cisbio Bioassays,
155 Codolet, France), which is based on homogeneous time-resolved fluorescence (HTRF)
156 technology, as previously described 1. For cells expressing the Apelin-R, 2000 CHO cells/well
157 stably expressing rat apelinR-EGFP (clone B70) were added to the 384-well plate and
158 stimulated with 5 µmol/l forskolin (FSK) and various concentrations (0.01 pmol/l to 100 […]
Cells were then lysed, and
165 cAMP levels were determined in accordance with the kit manufacturer’s instructions.
166 Stimulation was performed in stimulation buffer-IBMX (SBI) (Hank’s balanced salt solution
167 (HBSS-Life Technology), 5 mmol/l Hepes, 0.1% BSA stabilizer (Perkin Elmer), 1 mmol/l
168 isobutylmethylxanthine (IBMX, Sigma Aldrich, pH 7.4)). […]

[2] = Plasma protein binding (Rapid Equilibrium Dialysis); format: in vitro ADME; conditions: RED plate, 12 kDa cutoff, plasma vs phosphate buffer, 10 µmol/l, 4 hours, 37 °C, 600 rpm, UHPLC-MS/MS; value at equilibrium
Procedure: 252 TechMedILL platfor m (Illkirch) reviewed and approved by the agriculture ministry regulating
256 Male Sprague-Dawley rats were killed by decapitation, and trunk blood was collected on ice
257 (into 50 µl of 0.3M EDTA (pH 7.4) per 1 ml of blood). Samples were centrifuged (2,600 x g,
258 4°C, 20 min), and the resulting plasma was split into 500 µl aliquots, to which we added 168
259 µl of 3N HCl before storage at -80°C. The AVP RIA was performed as previously described
260 5, using a specific AVP-[Arg8] antibody (final dilution, 1/4.5) and [125I]-(Tyr2Arg8)-AVP
261 (2200 Ci/mmol, Perkin-Elmer, Billerica, MA; 15000 dpm) as a tracer.
263 Plasma protein binding of LIT01-196 was determined using Thermo Scientific Single-Use
264 RED Plate (Rapid Equilibrium Dialysis) composed of dialysis inserts with a me mbrane cutoff
265 of 12 kDa. Compound (10 µmol/l) was spiked in plasma chamber (donor side); phosphate
266 buffer was placed in the receiving side. The plate was rotated at 37 °C on an orbital shaker at
267 600 rpm for 4 hours. Peptide concentration was determined for the plasma sample that
268 represents the bound fraction, the peptide concentration was deter mined for the buffer sample
269 that represents the free fraction. The samples were analyzed by UHPLC-MS/MS (LC-MS […]
274 proteins. Percentages of bound and free peptides were calculated as follows: % free peptide = […]

[3] = test system: phosphorylated AQP-2 in mpkCCD cells; assay: dDAVP-induced phosphorylation of AQP-2 in mpkCCD cells (immunofluorescence); format: cell-based, mouse; conditions: 10 µmol/l compound with 10 nmol/l dDAVP, 1 h
Procedure: mpkCCD cells were seeded in 12 mm Transwell filters of 0.4 μm pore size at a density of 160,000 cells/cm^2 and were grown for 5 days. Twenty-four hours before the experiment, cells were starved with depletion media (1:1 (vol/vol) Ham’s F12:DMEM medium). […] The cell culture medium was removed and cells were fixed with 4% formaldehyde in 1× PBS for 10 min at 4 °C, and permeabilized with 0.5% PBS Triton X-100 for 5 min at 20 °C. Then, inserts were incubated in 5% PBS-BSA for 60 min at 20 °C to block non-specific protein binding. Inserts were subjected to immunostaining with a rabbit anti-AQP-2-pS269 antibody (dilution, 1/200, Phospho Solution, Cliniscience, France) and a mouse monoclonal anti-occludin antibody (dilution, 1/200, Santa Cruz, Cliniscience, France) for 16 h at 4 °C. Inserts were then incubated with goat anti-rabbit Alexa Fluor Plus 647 or goat anti-mouse Alexa Fluor plus 488 secondary antibodies (dilution, 1/500, Invitrogen) for 60 min at 20 °C. […] Slides were analyzed in the x–y and x–z axes under a ×63/1.4 Oil WD: 0.17 mm objective with a Zeiss Axioobserver Z1 inverted spinning-disk microscope equipped with a camera sCMOS Hamamatsu 2048 × 2048/pixel size: 6.45 × 6.45 µm^2 and the lasers (405 nm; 100 mW, 491 nm; 150 mW and 642 nm; 100 mW). […]

[4] = test system: alert Sprague-Dawley rats; assay: Mean arterial blood pressure in alert rats; format: in vivo, rat; set-up: SBP_Baseline / SBP_3h / SBP_24h: unit not given here
Procedure: 291 Blood pressure measurements
292 Rats were implanted with a right femoral artery catheter which was passed beneath the skin
293 under isoflurane anesthesia. Blood pressure (BP) was recorded in male alert Sprague Dawley
294 rats after a recovery period of at least 24 hours, with a PowerLab/Labchart system
295 (ADInstruments, Dunedin, New Zealand) connected to the arterial catheter via a pressure
296 transducer. Mean arterial BP (MABP) was calculated from the arterial pressure signal as
297 previously described 7. The compound was administered s.c. after baseline BP recording for at
298 least 30 minutes. BP was then measured at 3 and 24 hours after administration. At the end of
299 the experiment, animals were killed with a lethal dose of pentobarbital (Dolethal ®, 150

[5] = test system: normonatremic Sprague-Dawley rats; assay: Blood and urine chemistry after 4 days of s.c. administration in rats; format: in vivo, rat; set-up: Plasma glucose: unit not given beside the values; Blood urea nitrogen / 24h Urine glucose: unit not given here
Procedure: Fractional excretion of water (in %) was calculated using the following formula: (plasma creatinine/urine creatinine) × 100. Fractional excretion of sodium (in %) was calculated using the following formula: (plasma creatinine × urine sodium/urine creatinine × plasma sodium) × 100. Blood and urine creatinine, urea nitrogen, and glucose levels were determined using an AU5800 Beckman Coulter chemistry analyzer (Beckman Coulter, Villepinte, France).

In the case of `CSCC[C@H](NC(=O)[C@@H]1CCCN1C(=O)CNC(=O)[C@H](CCCCN)NC(=O)[C@H](Cc1c[nH]cn1)NC(=O)[C@H](CO)NC(=O)[C@H](CC(C)C)NC(=O)[C@H](CCCNC(=N)N)NC(=O)[C@@H]1CCCN1C(=O)[C@H](CCCNC(=N)N)NC(=O)[C@H](CCC(N)=O)NC(=O)[C@H](CCCNC(=N)N)NC(=O)[C@H](CCCNC(=N)N)NC(=O)[C@H](Cc1ccccc1)NC(=O)[C@H](CCCCN)NC(=O)CCC(F)(F)C(F)(F)C(F)(F)C(F)(F)C(F)(F)C(F)(F)C(F)(F)C(F)(F)F)C(=O)N1CCC[C@H]1C(=O)N[C@@H](Cc1ccccc1)C(=O)O` [LIT01-196], the IC50 [1] is reported as 1.7 ± 0.5 nM, the “bound fraction to plasma proteins” value [2] is reported as 69 ± 7% and the “phosphorylation of AQP-2 (phospho-AQP-2 immunolabelling)” value [3] is reported as “decrease in the phosphorylation of AQP-2”. For the same compound, the SBP_3h ([4]; 900 nmol/kg SC, 3h, individual animals (Fig. S5A source data)) was 100.529 and 94.7199 and 92.7855 and 89.7756 and 91.9306, the SBP_24h ([4]; 900 nmol/kg SC, 24h, individual animals (Fig. S5A source data)) was 122.566 and 101.322 and 101.468 and 97.9055 and the SBP_Baseline ([4]; 900 nmol/kg SC, baseline, individual animals (Fig. S5A source data)) was 113.98 and 106.154 and 101.631 and 106.857 and 101.074. For the same compound, the “MABP 24 h after administration” value ([4]; 900 nmol/kg s.c., alert rats) was “did not significantly differ from baseline”, the “mean arterial blood pressure (MABP) 3 h after administration” value ([4]; 900 nmol/kg s.c., alert rats, n = 5, baseline 106 ± 2, p = 0.063) was 94 ± 2 mmHg and the Plasma creatinine ([5]; 900 nmol/kg SC, individual animals (Fig. S5G source data)) was 21 and 24 and 22. For the same compound, the Blood urea nitrogen ([5]; 900 nmol/kg SC, individual animals (Fig. S5H source data)) was 7 and 8 and 5.6 and 6.8 and 6.1, the Plasma potassium ([5]; 900 nmol/kg SC, individual animals (Fig. S5J source data)) was 4.54 and 4.76 and 5.03 and 4.26 and 4.35 and the Plasma glucose ([5]; 900 nmol/kg SC, individual animals (Fig. S5K source data)) was 8.1 and 9.1 and 7.4 and 8 and 7.6. The “24h Urine glucose” value ([5]; 900 nmol/kg SC, individual animals (Fig. S5L source data)) was 0.04364 and 0.0331 and 0.0123 and 0, the “blood creatinine, urea nitrogen, sodium, and potassium levels” value ([5]; 900 nmol/kg s.c. for 4 days, rats) was “not changed” and the “plasma or urine glucose levels” value ([5]; repeated 900 nmol/kg s.c., normonatremic rats) was “not associated with a change”.
